Experimental data taken from patent US6635629B2, “3-nitrogen-6,7-dioxygen steroids and uses related thereto” (Inflazyme Pharmaceuticals Ltd., priority 2000, dated 2003).

Tested on: rat mast cell line (RBL-2H3)
Assay: Antigen-induced release of hexosaminidase from a rat mast cell line (RBL-2H3)
Format: cell-based
Conditions: Rattus norvegicus, RBL-2H3, inhibition of DNP-HSA antigen-induced hexosaminidase release; tested at 0.3, 3, 10 and 30 μM; read-out: Hex IC50
Procedure: The anti-allergic effects of a compound of the present invention was evaluated by measuring its effect on antigen-induced secretion of hexosaminidase from a passively sensitized rat mast cell line. The ability of a test compound to inhibit the release of mast cell granule contents, e.g., histamine and hexosaminidase, is indicative of the anti-allergy and/or anti-asthma activity of the compound. Hexosaminidase is released from the mast cell granule along with histamine and other mediators during antigen challenge. The test is performed as follows.
RBL-2H3 cells are grown in culture and passively sensitized for 1 hour at 37° C. to dinitrophenol (DNP) using anti-human-DNP (IgE). Cells are incubated with test compound for 30 minutes at 37° C. and stimulated with 0.5 μg/ml DNP-HSA (antigen) for 30 minutes. Aliquots of the supernatant are removed and used to measure the amount of hexosaminidase released during challenge with the antigen. […] The effect of each test compound is determined as a percentage of the antigen-induced response (minus background release) obtained in the presence of DMSO alone. These values are used to determine the degrees of inhibition of antigen-induced hexosaminidase release from the cells.

Q: How did the IC50 turn out when C=C1CCC2C3C(CC[C@]12C)[C@@]1(C)CCC(N)CC1[C@@H](O)[C@@H]3O (stereo partly drawn) [Compound 53] was run?
A: 17.6 µM

Same assay, conditions: inhibition of DNP-HSA antigen-induced hexosaminidase release; tested at 0.3, 3, 10 and 30 μM; read-out: Hex IC50

Q: Which IC50 does the source give for CCC1(C)CCC2=C1CCC1C2C(O)C(O)C2CC(Nc3ccccc3)CCC21C.Cl (mixture of isomers) [Compound 144] here?
A: 6.9 µM

Q: CCC1(C)CCC2=C1CCC1C2C(O)C(O)C2CC(Nc3cccc(C(F)(F)F)c3)CCC21C.Cl (mixture of isomers) [Compound 145] was tested. Which IC50 did it give?
A: 22 µM

Q: C=C1CCC2C3C(CC[C@]12C)[C@@]1(C)CCC(N)CC1[C@@H](OC)[C@@H]3OC (stereo partly drawn) [Compound 80] was tested. Which IC50 did it give?
A: 10.7 µM

Q: With CC(F)=C1CCC2C3C(CC[C@]12C)[C@@]1(C)CCC(N)CC1[C@@H](O)[C@@H]3O (stereo partly drawn) [Compound 95] as the molecule, how does the IC50 read?
A: 13.5 µM

Q: For C=C1CCC2C3C(O)C(O)C4CC(NCc5cccc(C(F)(F)F)c5)CCC4(C)C3CCC12C.CC(=O)O (stereo not drawn) [Compound 102], which IC50 is on record?
A: 10 µM

Q: C=C1CCC2C3C(O)C(O)C4CC(NCc5ccccc5OC)CCC4(C)C3CCC12C.CC(=O)O (stereo not drawn) [Compound 103] was tested. Which IC50 did it give?
A: 11.1 µM

Q: Which IC50 does the source give for C=C1CCC2C3C(O)C(O)C4CC(NCc5ccc(OC(F)(F)F)cc5)CCC4(C)C3CCC12C.CC(=O)O (stereo not drawn) [Compound 104] here?
A: 9.5 µM

Q: How did the IC50 turn out when C=C1CCC2C3C(O)C(O)C4CC(NCc5cccc(Oc6ccccc6)c5)CCC4(C)C3CCC12C.CC(=O)O (stereo not drawn) [Compound 105] was run?
A: 22.5 µM

Q: C=C1CCC2C3C(O)C(O)C4CC(NCc5cccc([N+](=O)[O-])c5)CCC4(C)C3CCC12C (stereo not drawn) [Compound 106] was tested. Which IC50 did it give?
A: 8.8 µM

Q: How did the IC50 turn out when CC=C1CCC2C3C(O)C(O)C4CC(N5CCOCC5)CCC4(C)C3CCC12C.Cl (stereo not drawn) [Compound 111] was run?
A: 9.3 µM

Q: Which IC50 does the source give for C/C=C1/CCC2C3C(CC[C@]12C)[C@@]1(C)CCC(NC)CC1[C@@H](O)[C@@H]3O (stereo partly drawn) [Compound 113] here?
A: 9.8 µM

Q: CC=C1CCC2C3C(O)C(O)C4CC(NCCCCC)CCC4(C)C3CCC12C.Cl (stereo not drawn) [Compound 115] was tested. Which IC50 did it give?
A: 11.1 µM

Q: How did the IC50 turn out when CC=C1CCC2C3C(O)C(O)C4CC(NC5CCCC5)CCC4(C)C3CCC12C (stereo not drawn) [Compound 116] was run?
A: 9.6 µM

Q: CC(=O)O.CC=C1CCC2C3C(O)C(O)C4CC(NC5CCCCC5)CCC4(C)C3CCC12C (stereo not drawn) [Compound 117] was tested. Which IC50 did it give?
A: 6.6 µM

Q: Which IC50 does the source give for CC(=O)O.CC=C1CCC2C3C(O)C(O)C4CC(N5CCCC5)CCC4(C)C3CCC12C (stereo not drawn) [Compound 118] here?
A: 11 µM

Q: For CC=C1CCC2C3C(O)C(O)C4CC(NCCN(C)C)CCC4(C)C3CCC12C.Cl.Cl (stereo not drawn) [Compound 120], which IC50 is on record?
A: 9.1 µM

Tested on: sensitized Brown Norway rats
Assay: Ovalbumin-induced accumulation of inflammatory cells in lung lavage fluid of sensitized Brown Norway rats
Format: in vivo, rat
Conditions: 5 mg/kg/day for 4 days, p.o., corn oil vehicle; relative to control animals
Procedure: The ability of a compound to inhibit the allergen-induced accumulation of inflammatory cells such as eosinophils and neutrophils in the lavage fluid obtained from sensitized animals is indicative of that compound's anti-asthma activity. […] The test is conducted as follows.
Male Brown Norway rats are sensitized to ovalbumin by single intraperitoneal injection of 1 mg ovalbumin adsorbed to 100 mg A(OH)3 (alum) in 1 ml sterile saline (saline control rats receive only sterile saline) on day 1, and allowed to sensitize until day 21. […] Rats are challenged with 0.5% ovalbumin in saline generated using a Devillbis nebulizer for 60 min on day 21.
Forty-eight hrs after challenge, animals are sacrificed with an overdose of intraperitoneally-delivered sodium pentobarbitol and the lungs are lavaged with cold 2×7 ml phosphate buffered saline. The recovered lavage fluid is placed on ice. The bronchoalveolar lavage fluid is centrifuged and the supernatant removed. The pellet is resuspended in phosphate buffered saline at 4° C. Cytospins are prepared and stained for differentiation and enumeration of cell types.
Test compound was administered in 300 μl corn oil (Tables 7 and 8) or water (Table 9), which were used as vehicles. Control animals received 300 μl corn oil or water alone, i.e., no drug. […] A negative value in Table 7, 8, or 9 indicates an exacerbation of the effect over the control animal.

Q: For C=C1CCC2C3C(CC[C@]12C)[C@@]1(C)CCC(N)CC1[C@@H](O)[C@@H]3O (stereo partly drawn) [Compound 53], which “% inhibition of eosinophils” value is on record?
A: 24%

Q: And the “% inhibition of lymphocytes” value?
A: 13%

Q: What about the “% inhibition of neutrophils” value of the same molecule?
A: 57%

Q: What does the source list for CC(F)=C1CCC2C3C(CC[C@]12C)[C@@]1(C)CCC(N)CC1[C@@H](O)[C@@H]3O (stereo partly drawn) [Compound 95]?
A: % inhibition of eosinophils: 14%; % inhibition of lymphocytes: 30%; % inhibition of neutrophils: 45%

Tested on: Jurkat clone E6.1 cells
Assay: Antigen-induced (anti-CD3 mAb) calcium flux in Jurkat clone E6.1 cells
Format: cell-based
Conditions: 20 μM; anti-CD3 mAb 4 μg/mL; Fura 2AM
From the text: Elevation of cytoplasmic calcium concentration is a common and crucial event which follows the activation of many types of cell surface receptors. Increases in intracellular calcium that occur following agonist activation of inositol lipid hydrolysis are the results of calcium release from the endoplasmic reticulum and the influx of calcium through the plasma membrane. Increases in cytosolic calcium concentration are involved in many important cellular responses in the inflammatory process including adhesion, motility, gene expression, proliferation, and degranulation. Changes in intracellular calcium centrations can affect both short and long term cellular responses. An assay method to evaluate a test compound's impact on calcium flux is provided as follows.
The resulting supernatants are discarded and each pellet is washed in 10 mL HBSS. Cell suspensions are accumulated and centrifuged for 5 minutes at 900 RPM to form a cell pellet. The resulting supernatant is discarded and the pellet is resuspended in HBSS at 1×10^7 cells/mL. The cell suspension is transferred to a 20 mm petri dish and incubated at 37° C., 5% CO2 for 20 minutes.
One volume of Fura 2AM is mixed to one volume of detergent Pluronic F127. Cells are labeled with 4 μL of probe solution to each mL of cell suspension. The petri dish is wrapped in aluminum foil to protect from light and placed on a plate shaker for 30 minutes at room temperature.
The following steps are done in the laminar flow hood with the fluorescent lights turned off. The petri dish is removed from the shaker and the labeled cell suspension is transferred to a 15 mL conical tube and washed twice with HBSS as above. The cell pellet is resuspended in 12 mL HBSS and left wrapped in foil for 30 minutes at room temperature. The labeled cell suspension is aliquoted (100 μL/well) into a Dynex 96 well white opaque tissue culture plate. […] Selected compounds were tested for dose related activity. Test samples and activator (anti—CD3 mAb at final concentration of 4 μg/mL, PharMingen) are added manually (50 μL), such that the minimum time to acquire the first data point after stimulation is approximately 30 seconds. The calcium influx response to anti-CD3 mAb is measured as an “end point” assay. The entire plate is read in 100 seconds using a kinetic of 1 second per well.
The plate is read before the addition of anti-CD3 to monitor non-specific effect of samples/drugs. Fluorescence emission is measured at 510 nm with excitation alternating between 340 and 380 every second using an excitation/emission filter pair. Data from these dual wavelengths are represented as a ratio of 2 excitations wavelengths. This ratio is independent of intracellular dye and cell concentrations, enabling real comparison between experiments.

Q: For CCC1(C)CCC2=C1CCC1C2C(O)C(O)C2CC(Nc3ccccc3)CCC21C.Cl (mixture of isomers) [Compound 144], which “Calcium (% inhibition at 20 μM)” value is on record?
A: 13.0%

Q: Which “Calcium (% inhibition at 20 μM)” value does the source give for CCC1(C)CCC2=C1CCC1C2C(O)C(O)C2CC(Nc3cccc(C(F)(F)F)c3)CCC21C.Cl (mixture of isomers) [Compound 145] here?
A: −0.2%

Q: Which “Calcium (% inhibition at 20 μM)” value does the source give for C=C1CCC2C3C(CC[C@]12C)[C@@]1(C)CCC(N)CC1[C@@H](O)[C@@H]3O (stereo partly drawn) [Compound 53] here?
A: −0.8%

Q: With C=C1CCC2C3C(CC[C@]12C)[C@@]1(C)CCC(N)CC1[C@@H](OC)[C@@H]3OC (stereo partly drawn) [Compound 80] as the molecule, how does the “Calcium (% inhibition at 20 μM)” value read?
A: 7.4%

Q: Which “Calcium (% inhibition at 20 μM)” value does the source give for CC(F)=C1CCC2C3C(CC[C@]12C)[C@@]1(C)CCC(N)CC1[C@@H](O)[C@@H]3O (stereo partly drawn) [Compound 95] here?
A: 11.2%

Q: For C=C1CCC2C3C(O)C(O)C4CC(NCc5cccc(C(F)(F)F)c5)CCC4(C)C3CCC12C.CC(=O)O (stereo not drawn) [Compound 102], which “Calcium (% inhibition at 20 μM)” value is on record?
A: 9.5%

Q: Which “Calcium (% inhibition at 20 μM)” value does the source give for C=C1CCC2C3C(O)C(O)C4CC(NCc5ccccc5OC)CCC4(C)C3CCC12C.CC(=O)O (stereo not drawn) [Compound 103] here?
A: 23.7%

Q: With C=C1CCC2C3C(O)C(O)C4CC(NCc5ccc(OC(F)(F)F)cc5)CCC4(C)C3CCC12C.CC(=O)O (stereo not drawn) [Compound 104] as the molecule, how does the “Calcium (% inhibition at 20 μM)” value read?
A: 30.3%

Q: For C=C1CCC2C3C(O)C(O)C4CC(NCc5cccc(Oc6ccccc6)c5)CCC4(C)C3CCC12C.CC(=O)O (stereo not drawn) [Compound 105], which “Calcium (% inhibition at 20 μM)” value is on record?
A: 10.2%

Q: How did the “Calcium (% inhibition at 20 μM)” value turn out when C=C1CCC2C3C(O)C(O)C4CC(NCc5cccc([N+](=O)[O-])c5)CCC4(C)C3CCC12C (stereo not drawn) [Compound 106] was run?
A: 8.1%

Q: With CC=C1CCC2C3C(O)C(O)C4CC(N5CCOCC5)CCC4(C)C3CCC12C.Cl (stereo not drawn) [Compound 111] as the molecule, how does the “Calcium (% inhibition at 20 μM)” value read?
A: 53.1%

Q: With C/C=C1/CCC2C3C(CC[C@]12C)[C@@]1(C)CCC(NC)CC1[C@@H](O)[C@@H]3O (stereo partly drawn) [Compound 113] as the molecule, how does the “Calcium (% inhibition at 20 μM)” value read?
A: 45.0%

Q: With CC=C1CCC2C3C(O)C(O)C4CC(NCCCCC)CCC4(C)C3CCC12C.Cl (stereo not drawn) [Compound 115] as the molecule, how does the “Calcium (% inhibition at 20 μM)” value read?
A: 40.0%

Q: How did the “Calcium (% inhibition at 20 μM)” value turn out when CC(=O)O.CC=C1CCC2C3C(O)C(O)C4CC(NC5CCCCC5)CCC4(C)C3CCC12C (stereo not drawn) [Compound 117] was run?
A: 42.2%

Q: How did the “Calcium (% inhibition at 20 μM)” value turn out when CC(=O)O.CC=C1CCC2C3C(O)C(O)C4CC(N5CCCC5)CCC4(C)C3CCC12C (stereo not drawn) [Compound 118] was run?
A: 41.8%

Q: Which “Calcium (% inhibition at 20 μM)” value does the source give for CC=C1CCC2C3C(O)C(O)C4CC(NCCN(C)C)CCC4(C)C3CCC12C.Cl.Cl (stereo not drawn) [Compound 120] here?
A: 44.0%
